Experimental data as given in patent EP0268871A1, “Quinoline derivatives” (priority 1986, dated 1988).

Biological target: acetylcholinesterase (Homo sapiens, UniProt P22303)
Experiment: Determination of inhibitory activity against acetylcholinesterase (photometric method of Ellman et al.)
Format: biochemical
Conditions: Relative ratio = IC50 (molar) of Tacrine / IC50 (molar) of test compound; IC50 = concentration of drug which inhibits 50% level of control
Description: Determination of inhibitory activity against acetylcholinesterase
The inhibitory activity against acetylchalinesterase of the compounds provided with the present invention was determined by the photometric methods described in Ellman et al., Biochemical Pharmacology, Vol. 7, p.

Sequence of acetylcholinesterase (P22303 32-614): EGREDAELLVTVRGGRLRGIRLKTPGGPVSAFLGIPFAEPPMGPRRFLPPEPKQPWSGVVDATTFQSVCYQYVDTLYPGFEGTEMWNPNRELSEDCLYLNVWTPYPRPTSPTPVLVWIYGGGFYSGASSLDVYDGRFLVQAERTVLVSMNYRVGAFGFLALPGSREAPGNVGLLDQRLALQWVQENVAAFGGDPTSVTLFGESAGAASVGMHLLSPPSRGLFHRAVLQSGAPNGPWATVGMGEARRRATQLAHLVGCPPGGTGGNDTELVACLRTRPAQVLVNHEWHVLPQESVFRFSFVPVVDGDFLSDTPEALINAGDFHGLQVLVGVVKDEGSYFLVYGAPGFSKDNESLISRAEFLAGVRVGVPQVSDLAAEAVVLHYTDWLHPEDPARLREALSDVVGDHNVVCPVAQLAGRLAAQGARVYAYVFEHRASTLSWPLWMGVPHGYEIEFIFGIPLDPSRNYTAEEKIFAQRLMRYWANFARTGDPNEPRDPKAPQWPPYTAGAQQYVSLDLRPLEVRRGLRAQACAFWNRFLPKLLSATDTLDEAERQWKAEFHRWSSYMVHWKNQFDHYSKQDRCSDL

SMILES | Acetylcholinesterase Inhibition (reative ratio*)
Nc1c2c(nc3cc(F)ccc13)CCCC2 [Example 2, 9-amino-6-fluoro-1,2,3,4-tetrahydroacridine] | 2.53
Nc1c2c(nc3cccc(F)c13)CCC2 [Example 6] | 1.75
Cc1cccc2nc3c(c(N)c12)CC(C)C3 (centres unmarked) [Example 14] | 1.27
Nc1c2c(nc3cc(Cl)ccc13)C1C=CC2CC1 (centres unmarked) [Example 94] | 2.22
Nc1c2c(nc3cc(C(F)(F)F)ccc13)CCCC2 [compound 36] | 1.15
Nc1c2c(nc3cc(F)c(F)cc13)CCCCC2 [compound 38] | 2.04
Cc1cccc2nc3c(c(N)c12)CSCC3 [compound 112] | 1.30
Nc1c2c(nc3cccc(F)c13)CSCC2 [compound 118] | 3.13
Nc1c2c(nc3cccc(Cl)c13)CSCC2 [compound 149] | 4.12
Nc1c2c(nc3c(F)cccc13)CCCCC2 [compound 156] | 2.50
Nc1c2c(nc3cccc(F)c13)CCCC2 [compound 157] | 3.60
